# From patent US7109014B1, “Diglycosidase isolated from microorganisms” (Amano Enzyme Inc., priority 1998, dated 2006)
# Counter-ions that a name gives are not always drawn. Like-named read-outs stand apart in the source and are kept apart here.
# B1: diglycosidase derived from Aspergillus fumigatus: purified enzyme preparation of diglycosidase from Aspergillus fumigatus IAM 2046, single band of 47 kDa, SEQ ID NO: 8 (protein, listed as Aspergillus fumigatus)
# chain: AASASAYCSNSAGNYKLSSIAAPVQGAGNPGSESTWQLTVDDTSSGHKQTIVGFGAAVTDATVTSFNTLSASVLQDLLNKLMTPAGANFALMRHTIGASDLSGDPAYTYDDNGGKADPSLSGFNLGDRGTAMAKMLATMKSLQPNLKILGSPWSAPGWMKLNGVLDGNTNNNNLNDGYLTSGGTGSTGYASQFAQYFVKYIQAYKNLGAHVDAITIQNEPLFSSAGYPTMYVYDYESAQLIQNYIGPALASAGLDTEIWAYDHNTDVPSYPQTVLNQAGQYVKSVAWHCYAPNVDWTVLSQFHNTNPGVKQYMTECWTPASGAWHQAADFTMGPLQNWASGVAAWTLGTNAQDGPHLSTGGCATCQGLVTINNGGYTLNTAYYMMAQFSKFMPPGAIVLNGSGSYTYSGGGGIQSVASLNPDGTRTVVIENTFGNDVYVTVTMKSGQKWSGNAPSQSVTTWVLPSA
# Legend:
# [1] = test system: Aspergillus fumigatus IAM 2046; assay: Effects of inducers on the production of diglycosidase; type: cell-based; conditions: for activity at 0.1 %: Aspergillus fumigatus, IAM2046, 144 h, read-out: Inducing ability (%)
# Protocol: Measurement of the activity was carried out using an automatic chemical analyzer (TBA-30R, manufactured by TOSHIBA CORP.). A 30 μl portion of each enzyme sample was mixed with 200 μl of acetate buffer solution (pH 5.5) containing 2 mM of p-nitrophenyl (pNP) primeveroside as the disaccharide glycoside substrate to carry out the reaction at 40° C. and at a cycle time of 22.5 seconds, for 9.75 minutes, and then the reaction solution was mixed with 250 μl of sodium carbonate to measure absorbance at 412 nm. Measurement of the sample blank was carried out in the same manner using 20 mM acetate buffer (pH 5.5) instead of the substrate solution.
# Using Aspergillus fumigatus IAM 2046, effects of inducers on the production of diglycosidase were examined. Aspergillus fumigatus IAM 2046 was cultured for 6 days in a culture medium (2% soybean flour, 0.3% sodium chloride, 0.1% KH2PO4, 0.05% MgSO4.7H2O, 3% soluble starch) supplemented with 0.1% of each of various saccharides, and the diglycosidase activity was measured.
# [2] = Sugar transfer in disaccharide unit by diglycosidase; type: biochemical; conditions: 55° C., 6 hours
# Protocol: The purified enzyme of Example 6 was diluted with deionized water to adjust the activity to E1.0 AU/ml, and acetonitrile ([…]) containing 2.5% phenethyl alcohol, 20 mM acetate buffer (250 μl) containing 10% primeverose and the enzyme solution (50 μl) were mixed to carry out the reaction at 55° C. The reaction was completed after 6 hours and the reaction solution was mixed with 500 μl of diethyl ether, stirred and then centrifuged to remove free aglycon which was transferred into the ether layer. By applying the water layer to a Diaion HP-20 column and passing purified water through the column, free primeverose was removed. The disaccharide glycoside adsorbed to the resin was eluted with methanol and concentrated to dryness. This was dissolved in 100 μl of deionized water, and a 20 μl portion thereof was spotted on a TLC plate to detect the reaction product (the developing solvent was ethyl acetate:acetic acid:deionized water=3:1:1, acetic acid:methanol=1:4 solution was sprayed thereto after the development and allowed to stand at 105° C. for 10 minutes).
# [3] = Release of disaccharide from pigment glycoside by TLC; type: biochemical; conditions: 5 mg/ml ruberythric acid, 37° C., 24 hours
# Protocol: Release of disaccharide was examined using a disaccharide glycoside, ruberythric acid, as the substrate. Ruberythric acid was prepared by adsorbing a water extract of Rubia tinctorum L. root powder for staining use (available from Tanaka Senshoku Ten) to HP-20 column, washing the column with 50% methanol, and then eluting the compound with 100% methanol and evaporating the eluate to dryness using an evaporator. A substrate prepared by dissolving the thus recovered ruberythric acid in a phosphate buffer to a concentration of 5 mg/ml was mixed with the crude enzyme solution (0.3 AU) shown in Example 4 or the purified enzyme solution shown in Example 6 and incubated at 37° C. for 24 hours, and then the reaction solution was analyzed by TLC.
# [4] = Release of disaccharide and formation of aroma from eugenyl primeveroside; type: biochemical; conditions: 0.3 AU purified enzyme, 37° C., 24 hours
# Protocol: eugenyl primeveroside solution adjusted to 5 mg/ml with 20 mM phosphate buffer (pH 6.0), the mixture was incubated at 37° C. for 24 hours and then the formation of aroma was examined by a sensory test (10 panel). […]
# […] […] These were not found in heat-inactivated enzyme solution.
# [5] = Thermal stability of diglycosidase (residual activity); type: physicochemical; conditions: pH 8, 1 hour, 30 to 55° C.
# Protocol: Thermal stability of the purified preparation was examined by diluting it 100 times with 20 mM glycine NaCl—NaOH buffer (pH 8), treating the dilution at each temperature of from 30 to 55° C. for 1 hour and then measuring the residual activity. As a result, the activity was stable at a temperature of 50° C. or below.
# [6] = Release of primeverose from pNP-primeveroside by TLC; type: biochemical; conditions: 0.3 AU purified enzyme, 37° C., 24 hours
# Protocol: Each of the crude enzyme solutions obtained in Examples 1 and 2 was concentrated using an ultrafiltration membrane having a molecular weight cutoff of 6,000. Next, 1 ml of the concentrated solution was mixed with 1 ml of a 5 mg/ml pNP-primeveroside solution which had been prepared using 20 mM phosphate buffer (pH 6.0), and the mixture was incubated at 37° C. Samples were collected 1, 2, 4, 24 and 48 hours thereafter to confirm release of primeverose by a thin layer chromatography (TLC).
# A 0.3 AU portion of the purified enzyme solution obtained in Example 6 and the aforementioned pNP-primeveroside were incubated at 37° C. for 24 hours to examine release of disaccharide by TLC. […] Such a spot was not found by the heat-treated purified enzyme solution used as a control.
# [7] = Optimum temperature of diglycosidase; type: biochemical; conditions: pH 2.5, 20 minutes
# Protocol: Its optimum temperature was measured in the following manner. A 400 μl portion of 2 mM pNP-primeveroside solution prepared using 20 mM disodium citric acid-HCl buffer (pH 2.5) was mixed with 90 μl of the enzyme solution to carry out the reaction at 30 to 65° C. for 20 minutes. The reaction was stopped by adding 500 μl of 0.5 M sodium carbonate solution, and the activity was determined by measuring the absorbance at 420 nm.
# [8] = Optimum pH of diglycosidase; type: biochemical
# Protocol: Its optimum pH was measured in the following manner. A 400 μl portion of 2 mM pNP-primeveroside solution which had been adjusted to a respective pH value of from pH 2 to 5 with 20 mM secondary citric acid-HCl buffer was incubated at 37° C. for 5 minutes. Next, this was mixed with 90 μl of the enzyme solution to carry out the reaction at 37° C. for 20 minutes. The reaction was stopped by adding 500 μl of 0.5 M sodium carbonate solution, and the activity measurement was carried out by measuring the absorbance at 420 nm.
# [9] = medium supplemented with 0.1% of saccharide, cultured 6 days, diglycosidase activity, not added = 100
Molecule,"activity at 0.1 % [1, 9]","Inducing ability (%) [1, 9]",other results
OC[C@H]1O[C@H](O[C@H]2[C@H](O)[C@@H](O)C(O)O[C@@H]2CO)[C@H](O)[C@@H](O)[C@@H]1O (mixture of isomers) [Maltose],136%,,
OC[C@@H](O)C(O)[C@H](O)CO [Arabitol],,112%,
O=C(CO)[C@@H](O)[C@H](O)[C@H](O)CO [Fructose],,,activity at 0.1 % [1]: 143%
OC[C@@H](O)[C@H](O)[C@H](O)[C@@H](O)CO [Galactitol],142%,,
O=C[C@H](O)[C@@H](O)[C@@H](O)[C@H](O)CO [Galactose],125%,,
N[C@H]1C(O)O[C@H](CO)[C@@H](O)[C@@H]1O (some centres unmarked) [Glucosamine hydrochloride],157%,,
OC[C@H]1O[C@H](OC[C@H]2OC(O)[C@H](O)[C@@H](O)[C@@H]2O)[C@H](O)[C@@H](O)[C@@H]1O (some centres unmarked) [Isomaltose],,145%,
OC[C@@H](O)[C@@H](O[C@H]1O[C@H](CO)[C@@H](O)[C@H](O)[C@H]1O)[C@H](O)[C@@H](O)CO [Maltitol],,142%,
C[C@H](O)[C@H](O)[C@@H](O)[C@@H](O)C=O [Rhamnose],129%,,
OC[C@H]1O[C@@](CO)(O[C@H]2O[C@H](CO)[C@@H](O)[C@H](O)[C@H]2O)[C@@H](O)[C@@H]1O [Sucrose],116%,,
OC[C@H]1O[C@H](O[C@H]2O[C@H](CO)[C@@H](O)[C@H](O)[C@H]2O)[C@H](O)[C@@H](O)[C@@H]1O [Trehalose],113%,,
Gentiobiose,,211%,"inducing ability / producing ability of diglycosidase (in words) ([1]; 0.1% saccharide, 6 days): markedly high inducing ability"
Maltotriose,,171%,
B1,,,transfer of disaccharide to phenethyl alcohol (TLC) [2]: transfers the diglycoside to phenethyl alcohol and thereby forms a disaccharide glycoside; release of primeverose and alizarin (TLC) [3]: release of the disaccharide primeverose and the aglycon alizarin was observed; release of disaccharide (TLC) [4]: release of a disaccharide was confirmed; release of eugenol (gas chromatography) [4]: confirmed; release of eugenol (sensory test) [4]: release of eugenol was also confirmed; temperature at which activity is stable [5]: ≤ 50 °C; release of disaccharide (TLC) [6]: release of a disaccharide was confirmed; activity at 60° C. [7]: 80%; activity at pH 3 (in words) [8]: sufficient activity
